Values after ≈ are worked out from the molar mass of the structure shown.
How the values were obtained:
Staphylococcus aureus = assay: Antimicrobial activity against methicillin-resistant Staphylococcus aureus; type: functional
HCT-116 = assay: Cytotoxicity against human HCT116 cells; type: cell-based

Row | SMILES | MIC (Staphylococcus aureus) | IC50 (HCT-116)
1 | CCCCCC[C@H](C)[C@H]1OC(=O)[C@H](C)NC(=O)[C@H](C)NC(=O)[C@H](CC(C)C)NC(=O)[C@H](C(C)C)NC(=O)CNC(=O)[C@@H]1C [EMERICELLAMIDE A] | 3.8 µM (≈ 2.32 µg/mL) | 23 µM
2 | CCCCCC[C@H](C)C[C@H](C)[C@H]1OC(=O)[C@H](C)NC(=O)[C@H](C)NC(=O)[C@H](CC(C)C)NC(=O)[C@H](C(C)C)NC(=O)CNC(=O)[C@@H]1C [EMERICELLAMIDE B] | 6 µM (≈ 3.91 µg/mL) | 40 µM
